Experimental data reported in patent publication US20080255127A1, “Pesticide Formulations with a Crystallization Risk, and a Method for Their Preparation” (priority 2005, published 2008).

What was measured:
[1] = Crystallization test of EW formulations Dn (25-μm metal filter); assay type: physicochemical; parameters: key to Crystallization: −: A minus sign indicates the absence of crystals; +: a plus sign indicates their presence; details: 5.0% pesticide in formulation Dn; for Crystallization: 2% of the formulation in 98 ml of water, 1° C. for 24 h, 25-μm metal filter
Experimental: In the crystallization test, an emulsion consisting of 2% of the formulation in 98 ml of water was kept at 1° C. for 24 h and was then passed through a 25-μm metal filter. A minus sign indicates the absence of crystals, while a plus sign indicates their presence. […] The worst emulsion, which however was still acceptable, scored +, a good emulsion scored ++ and the best ones scored +++. Both the phase separation and the time of its occurrence were observed when evaluating the emulsion. […] A single + sign means that some oil did separate out after 2 hours.

[2] = Risk of crystallization of pesticides in ECs and EWs; assay type: physicochemical; details: conventional recipes; EW with less than 10% of water
From the text: This is what happened in the case of both EP655197 and EP453899, where the compositions for which the disclosed anticrystallization agents (N,N-dialkylamides) cover the whole range of triazoles with a fungicidal action, without giving examples of all of the compositions in which it is appropriate to use N,N-dimethylalkylamides. […] Propioconazole is an example.
The inventors have established that it is not the similarly of the chemical structure that puts the pesticide “at risk” of crystallization in ECs and EWs, but instead it is much more sensible to evaluate certain experimental parameters (or parameters that are calculated semi-empirically) in order to predict the risk of crystallization. In numerous tests, the inventors have found some pesticides with a risk of crystallization and others without. This risk refers in concrete terms to what happens when 5 ml of the EC or EW is diluted with 95 ml of water and kept in a refrigerator (at 1° C.), after which the emulsion is passed through a 5-μm filter 7 days later.

Row | Molecule | Crystallization [1] | further results
1 | O=C(O)COc1ccc(Cl)cc1Cl [2,4-D] | − | 
2 | Cc1cc(Cl)ccc1OCC(=O)O [MCPA] | − | 
3 | CCNc1nc(Cl)nc(NC(C)C)n1 [atrazine] | − | 
4 | COP(=S)(OC)SCn1nnc2ccccc2c1=O [azinphos-methyl] | − | 
5 | O=c1oc2ccccc2c(O)c1C(CC(O)c1ccc(-c2ccc(Br)cc2)cc1)c1ccccc1 (centres unmarked) [bromadiolone] | − | 
6 | Clc1ccc(C2(Cn3cncn3)CC(Br)CO2)c(Cl)c1 (centres unmarked) [bromuconazole] | − | 
7 | C=CCOC(=O)C(C)(C)OC(=O)c1cc(-n2c(=O)cc(C(F)(F)F)n(C)c2=O)ccc1Cl [butafenacil] | − | 
8 | Cc1ccc(NC(=O)N(C)C)cc1Cl [chlorotoluron] | − | 
9 | O=c1oc2ccccc2c(O)c1C1CCCc2ccccc21 (centres unmarked) [coumatetralyl] | + | 
10 | O=C(O)C1(C(=O)Nc2ccc(Cl)cc2Cl)CC1 [cyclanilide] | − | 
11 | CC(C1CC1)C(O)(Cn1cncn1)c1ccc(Cl)cc1 (centres unmarked) [cyproconazole] | − | 
12 | CC1COC(Cn2cncn2)(c2ccc(Oc3ccc(Cl)cc3)cc2Cl)O1 (centres unmarked) [difenconazole] | − | 
13 | COc1ccc(C(=CC(=O)N2CCOCC2)c2ccc(Cl)cc2)cc1OC [dimethomorph] | − | 
14 | CN(C)C(=O)Nc1ccc(Cl)c(Cl)c1 [diuron] | − | 
15 | CCOc1ccccc1OS(=O)(=O)NC(=O)Nc1nc(OC)cc(OC)n1 [ethoxysulfuron] | − | 
16 | CC1(C(=O)Nc2ccc(O)c(Cl)c2Cl)CCCCC1 [fenhexamid] | − | 
17 | C/C(=N/Nc1nc(C)cc(C)n1)c1ccccc1C [ferimzone] | − | 
18 | C[Si](Cn1cncn1)(c1ccc(F)cc1)c1ccc(F)cc1 [flusilazole] | − | 
19 | CS(=O)(=O)NC(=O)c1cc(Oc2ccc(C(F)(F)F)cc2Cl)ccc1[N+](=O)[O-] [fomesafen] | − | 
20 | c1coc(-c2nc3ccccc3[nH]2)c1 [fuberidazole] | − | 
21 | COC(=O)C(C)N(C(=O)c1ccco1)c1c(C)cccc1C (centres unmarked) [furalaxyl] | − | 

Row | Molecule | Crystallization [1] | further results
22 | CC(C)(C)N(NC(=O)c1ccc(Cl)cc1)C(=O)c1ccccc1 [halofenozide] | − | 
23 | C=CCOC(Cn1ccnc1)c1ccc(Cl)cc1Cl (centres unmarked) [imazalil] | − | 
24 | CCC1(CC2(c3cccc(Cl)c3)CO2)C(=O)c2ccccc2C1=O (centres unmarked) [indanofan] | − | 
25 | Cc1ccc(C(C)NC(=O)[C@@H](NC(=O)OC(C)C)C(C)C)cc1 (some centres unmarked) [iprovalicarb] | − | 
26 | CC(C)c1ccc(NC(=O)N(C)C)cc1 [isoproturon] | − | 
27 | CON(C)C(=O)Nc1ccc(Cl)c(Cl)c1 [linuron] | − | 
28 | CCOC(=O)C1=NN(c2ccc(Cl)cc2Cl)C(C)(C(=O)OCC)C1 (centres unmarked) [mefenpyr-diethyl] | − | 
29 | CC1(C)CCC(Cc2ccc(Cl)cc2)C1(O)Cn1cncn1 (centres unmarked) [metconazole] | − | 
30 | CNC(=O)Oc1cc(C)c(SC)c(C)c1 [methiocarb] | − | 
31 | OC(c1ccc(F)cc1)(c1cncnc1)c1ccccc1Cl (centres unmarked) [nuarimol] | − | 
32 | CC(C)(C)C(O)C(Cc1ccc(Cl)cc1)n1cncn1 (centres unmarked) [paclobutrazole] | − | 
33 | CCC(=O)Nc1ccc(Cl)c(Cl)c1 [propanil] | − | 
34 | OC(Cc1ccccc1Cl)(Cn1nc[nH]c1=S)C1(Cl)CC1 (centres unmarked) [prothioconazole] | − | 
35 | CCOP(=S)(OCC)Oc1ccc(=O)n(-c2ccccc2)n1 [pyridaphenthion] | − | 
36 | CC1CCCCC1NC(=O)Nc1ccccc1 (centres unmarked) [siduron] | + | Crystallization problems (in words) [1]: had crystallization problems
37 | CCNc1nc(NCC)nc(SC)n1 [simetryn] | − | 
38 | CC(C)(C)C(O)(CCc1ccc(Cl)cc1)Cn1cncn1 (centres unmarked) [tebuconazole] | − | 
39 | CC(C)(C)C(=O)C(Oc1ccc(Cl)cc1)n1cncn1 (centres unmarked) [triadimefon] | − | 
40 | CC(C)(C)C(O)C(Oc1ccc(Cl)cc1)n1cncn1 (centres unmarked) [triadimenol] | − | 
41 | CCOC(=O)CSc1nc(C(C)(C)C)nn1C(=O)N(C)C [triazamate] | + | Crystallization problems (in words) [1]: had crystallization problems
42 | Propioconazole |  | Crystallization problems in an emulsifiable concentrate (EC) or emulsion in water (EW) [2]: free of crystallization problems
